Measurements as given in ChEMBL document CHEMBL4014333, “Discovery of Small Molecules for Repressing Cap-Independent Translation of Human Vascular Endothelial Growth Factor (hVEGF) as Novel Antitumor Agents” (J Med Chem, 2017).
Calls of active or inactive are those of the source.

Experiments:
[1] = Binding affinity to biotin-labeled DNA hairpin (unknown origin) by SPR analysis
Homo sapiens [2] = species on record: Homo sapiens; assay: Binding affinity to biotin-labeled human wild type internal ribosome entry site A RNA G-quadruplex by SPR analysis
Homo sapiens [3] = species on record: Homo sapiens; assay: Binding affinity to biotin-labeled human 5'-UGAUGAGUGUGAGGAGGA-3' RNA G-quadruplex by SPR analysis
Homo sapiens [4] = species on record: Homo sapiens; assay: Destabilization of human wild type internal ribosome entry site A RNA G-quadruplex assessed as melting temperature at 5 uM by CD spectra method (reference value: 80.9 +/- 0.8 degreeC)
Homo sapiens [5] = species on record: Homo sapiens; assay: Destabilization of human wild type internal ribosome entry site A RNA G-quadruplex expressed in MCF7 cells assessed as down regulation of VEGF-A translation up to 0.5 uM after 24 hrs by dual-luciferase reporter gene assay relative to control; format: cell-based
Homo sapiens [6] = species on record: Homo sapiens; assay: Destabilization of human 5'-UGAAGAGUGUGAGUAGUA-3' RNA expressed in MCF7 cells assessed as down regulation of VEGF-A translation at up to 1.5 uM after 24 hrs by dual-luciferase reporter gene assay; format: cell-based
MCF7 = assay: Antitumor activity against human MCF7 cells xenografted in nude Balb/c mouse assessed as tumor weight at 1 mg/kg, ip qd for 20 days; format: functional
Homo sapiens [7] = species on record: Homo sapiens; assay: Destabilization of human wild type internal ribosome entry site A RNA G-quadruplex expressed in MCF7 cells assessed as down regulation of VEGF-A translation at 1.5 uM after 24 hrs by dual-luciferase reporter gene assay relative to control; format: cell-based
Homo sapiens [8] = species on record: Homo sapiens; assay: Destabilization of human 5'-UGAAGAGUGUGAGUAGUA-3' RNA expressed in MCF7 cells assessed as down regulation of VEGF-A translation at up to 0.5 uM after 24 hrs by dual-luciferase reporter gene assay; format: cell-based

| SMILES | Activity [1] | Activity (Homo sapiens [2]) | Activity (Homo sapiens [3]) | further results |
| --- | --- | --- | --- | --- |
| C[n+]1c2ccccc2c(NCCN2CCOCC2)c2oc3ccc(OCC[N+](C)(C)C)cc3c21 | Active | Active | Active |  |
| C[n+]1c2ccccc2c(NCC(=O)NCC(=O)NC(Cc2ccccc2)C(=O)O)c2oc3ccccc3c21 (stereo not given) | Active | Active | Active |  |
| CN(C)CCCNC1C2=Nc3ccccc3C2=Nc2ccccc21 (stereo not given) |  |  |  | Tm (Homo sapiens [4]): > 81 °C; Activity (Homo sapiens [5]): inactive |
| CN(C)CCCNc1c2ccccc2[n+](C)c2c1oc1ccc(OCC[N+]3(C)CCCCC3)cc12 | Active | Active | Active |  |
| C[n+]1c2ccccc2c(NCC(=O)NCC(=O)NCC(=O)O)c2oc3ccccc3c21 | Active | Active | Active |  |
| C[n+]1c2ccccc2c(NCCN2CCCCC2)c2oc3ccc(OCC[N+]4(C)CCCCC4)cc3c21 | Active | Active | Active |  |
| C[n+]1c2ccccc2c(NCCN2CCOCC2)c2oc3ccc(OCCC[N+](C)(C)C)cc3c21 | Active | Active | Active |  |
| C[n+]1c2ccccc2c(NCCCN2CCOCC2)c2oc3ccc(OCC[N+]4(C)CCOCC4)cc3c21 | Active | Active | Active |  |
| CN(C)CCCNc1c2ccccc2[n+](C)c2c1oc1ccc(OCCC[N+](C)(C)C)cc12 | Active | Active | Active |  |
| C[n+]1c2ccccc2c(NCCCN2CCOCC2)c2oc3ccc(OCCC[N+](C)(C)C)cc3c21 | Active | Active | Active |  |
| COc1ccc2cc3[n+](cc2c1NCCc1ccccc1)CCc1cc2c(cc1-3)OCO2 | Active | Active | Active |  |
| CN(C)CCCNc1c2ccccc2[n+](C)c2c1oc1ccc(OCC3CC[N+](C)(C)CC3)cc12 | Active | Active | Active |  |
| CCN(CC)CCNc1c2ccccc2[n+](C)c2c1oc1ccc(OCC[N+](C)(C)C)cc12 | Active | Active | Active |  |
| CCN(CC)CCNc1c2ccccc2[n+](C)c2c1oc1ccc(OCCC[N+](C)(C)C)cc12 | Active | Active | Active |  |
| CCN(CC)CCCNc1c2ccccc2[n+](C)c2c1[nH]c1ccccc12 | Active | Active | Active |  |
| CN1CCC(COc2ccc3oc4c(NCC(=O)NCC(=O)NC(CCCNC(=N)N)C(=O)NC(CC(=O)O)C(=O)O)c5ccccc5nc4c3c2)CC1 (stereo not given) | Active | Active | Active |  |
| NC(=O)c1ccccc1NC(=O)c1ccccc1[N+](=O)[O-] |  |  |  | Activity (Homo sapiens [6]): inactive |
| CN(C)CCNc1c2ccccc2[n+](C)c2c1[nH]c1ccc(F)cc12 | Active | Active | Active |  |
| CN1CCC(COc2ccc3oc4c(NCC(=O)NCC(=O)NC(CCCNC(=N)N)C(=O)NC(CO)C(=O)O)c5ccccc5nc4c3c2)CC1 (stereo not given) | Active | Active | Active |  |
| C[n+]1c2ccccc2c(NCCN2CCCCC2)c2oc3ccc(OCC[N+]4(C)CCOCC4)cc3c21 | Active | Active | Active |  |

| SMILES | Activity [1] | Activity (Homo sapiens [2]) | Activity (Homo sapiens [3]) | further results |
| --- | --- | --- | --- | --- |
| CN(C)CCCNc1c2ccccc2[n+](C)c2c1oc1ccc(OCC[N+]3(C)CCOCC3)cc12 | Active | Active | Active |  |
| CN(C)CCCNc1c2ccccc2[n+](C)c2c1oc1ccc(OCC[N+](C)(C)C)cc12 | Active | Active | Active |  |
| CN(C)CCNc1c2ccccc2[n+](C)c2c1oc1ccc(OCCC[N+](C)(C)C)cc12 | Active | Active | Active |  |
| CN(C)CCNc1c2ccccc2[n+](C)c2c1oc1ccc(OCC[N+](C)(C)C)cc12 | Active | Active | Active |  |
| CCN(CC)CCNc1c2ccccc2[n+](C)c2c1oc1ccc(OCC3CC[N+](C)(C)CC3)cc12 | Active | Active | Active |  |
| C[n+]1c2ccccc2c(NCCCN2CCOCC2)c2oc3ccc(OCC4CC[N+](C)(C)CC4)cc3c21 | Active | Active | Active |  |
| CCN(CC)CCNC(=O)COc1ccc2oc3c(NCCN(CC)CC)c4ccccc4[n+](C)c3c2c1 | Active | Active | Active |  |
| CN(C)CCNc1c2ccccc2[n+](C)c2c1oc1ccc(OCC[N+]3(C)CCCCC3)cc12 | Active | Active | Active |  |
| CN(C)CCNc1c2ccccc2[n+](C)c2c1oc1ccc(OCC3CC[N+](C)(C)CC3)cc12 | Active | Active | Active |  |
| C[n+]1c2ccccc2c(NCCN2CCOCC2)c2oc3ccc(OCC4CC[N+](C)(C)CC4)cc3c21 | Active | Active | Active |  |
| COc1cccc2c1C(=O)c1c(O)c3c(c(O)c1C2=O)C[C@@](O)(C(=O)CO)C[C@@H]3O[C@H]1C[C@H](N)[C@H](O)[C@H](C)O1 [DOXORUBICIN] |  |  |  | Activity (MCF7): 0.14 g |
| CCN(CC)CCNc1c2ccccc2[n+](C)c2c1oc1ccc(OCC[N+]3(C)CCOCC3)cc12 | Active | Active | Active |  |
| NCCOc1cc(C(=O)Nc2cc(OCCN)c3ccccc3n2)cc(C(=O)Nc2cc(OCCN)c3ccccc3n2)c1 |  |  |  | Activity (Homo sapiens [7]): inactive; Tm (Homo sapiens [4]): > 76 °C; Activity (Homo sapiens [8]): inactive |
| CN(C)CCCNc1c2ccccc2nc2c1oc1cc(OCCCN(C)C)ccc12 | Active | Active | Active |  |
| CCN(CC)CCCNc1c2ccccc2[n+](C)c2c1oc1ccc(OCC3CC[N+](C)(C)CC3)cc12 | Active | Active | Active |  |
| CCN(CC)CCCNc1c2ccccc2[n+](C)c2c1oc1ccc(OCC[N+]3(C)CCOCC3)cc12 | Active | Active | Active |  |
| CN(C)CCCNc1c2ccccc2[n+](C)c2c1[nH]c1ccc(F)cc12 | Active | Active | Active |  |
| COc1ccc2cc3[n+](cc2c1NCCCN1CCCCC1)CCc1cc2c(cc1-3)OCO2 | Active | Active | Active |  |
| COc1ccc2cc3[n+](cc2c1NCCCN1CCOCC1)CCc1cc2c(cc1-3)OCO2 | Active | Active | Active |  |
| CN(C)CCNc1c2ccccc2[n+](C)c2c1oc1ccccc12 | Active | Active | Active |  |
